Values belong to the molecule of their own block, whether it stands above or below them.
Tests used:
[1] = Hygroscopicity / water adsorption of crystal forms; assay type: physicochemical; details: dihydrochloride
[2] = Physical stability of crystal forms (temperature, humidity, phase equilibration); assay type: physicochemical
infants with PPHN = details: cited from earlier work

SMILES: C[C@H](O)[C@H](O)[C@H]1CNc2nc(N)[nH]c(=O)c2N1.Cl.Cl [Polymorph A, (6R)-L-erythro-tetrahydrobiopterin dihydrochloride]
adsorbs water to a content of [1]: about 3 percent by weight
phase equilibration tests of suspensions ([2]; tetrahydrofuran or tertiary-butyl methyl ether, stirred five days and 18 hours respectively, nitrogen, room temperature, filtration and air-drying): unchanged polymorph form A

SMILES: C[C@H](O)[C@H](O)[C@H]1CNc2nc(N)[nH]c(=O)c2N1.Cl.Cl [Polymorph B, (6R)-L-erythro-tetrahydrobiopterin dihydrochloride]
stability of the crystal form ([2]; dihydrochloride): highest thermodynamic stability above about 20 °C

SMILES: C[C@H](O)[C@H](O)[C@H]1CNc2nc(N)[nH]c(=O)c2N1.Cl.Cl [Polymorph F, (6R)-L-erythro-tetrahydrobiopterin dihydrochloride]
adsorbs water to a content of [1]: about 3 percent by weight

SMILES: Nc1ncnc2c1ncn2[C@@H]1O[C@H](COP(=O)(O)OP(=O)(O)OP(=O)(O)O)[C@@H](O)[C@H]1O [adenosine triphosphate]
infants with a response (infants with PPHN): 5 out of 6

SMILES: c1ccc(CC2=NCCN2)cc1 [tolazoline]
response rate (infants with PPHN): 60%

Continued, values first:

adsorbs water to a content of [1]: about 2.0 percent by weight
SMILES: C[C@H](O)[C@H](O)[C@H]1CNc2nc(N)[nH]c(=O)c2N1.Cl.Cl [Polymorph K, (6R)-L-erythro-tetrahydrobiopterin dihydrochloride]

relative humidity at which the form is stable ([2]; ambient temperatures, dihydrochloride): less than 70%
SMILES: C[C@H](O)[C@H](O)[C@H]1CNc2nc(N)[nH]c(=O)c2N1.Cl.Cl [hydrate form D, (6R)-L-erythro-tetrahydrobiopterin dihydrochloride]

relative humidity at which it is transformed back into form E [2]: above 75%
SMILES: C[C@H](O)[C@H](O)[C@H]1CNc2nc(N)[nH]c(=O)c2N1.Cl.Cl [polymorph J, (6R)-L-erythro-tetrahydrobiopterin dihydrochloride]
